Structures are written as SMILES. Non-standard residues stand in square brackets, D forms with d. Residues, ends and D or L forms follow the SMILES beside them. *: point of attachment. Sta = CC(C)C[C@H](N)[C@@H](O)CC(=O)O; 3Amb = NCc1cccc(C(=O)O)c1; Nle = CCCC[C@H](N)C(=O)O; Nva = CCC[C@H](N)C(=O)O; X1 = O=C(C1CCCCO1)* Bounds are passed on as bounds.

As a reminder, the IC50 is the concentration needed to halve the response being measured. A low value points to greater potency.

The target of the test is Beta-secretase 1 (Homo sapiens, UniProt P56817). The test is described as follows: Inhibition of human beta-secretase.
Chain of Beta-secretase 1 (P56817 whole entry): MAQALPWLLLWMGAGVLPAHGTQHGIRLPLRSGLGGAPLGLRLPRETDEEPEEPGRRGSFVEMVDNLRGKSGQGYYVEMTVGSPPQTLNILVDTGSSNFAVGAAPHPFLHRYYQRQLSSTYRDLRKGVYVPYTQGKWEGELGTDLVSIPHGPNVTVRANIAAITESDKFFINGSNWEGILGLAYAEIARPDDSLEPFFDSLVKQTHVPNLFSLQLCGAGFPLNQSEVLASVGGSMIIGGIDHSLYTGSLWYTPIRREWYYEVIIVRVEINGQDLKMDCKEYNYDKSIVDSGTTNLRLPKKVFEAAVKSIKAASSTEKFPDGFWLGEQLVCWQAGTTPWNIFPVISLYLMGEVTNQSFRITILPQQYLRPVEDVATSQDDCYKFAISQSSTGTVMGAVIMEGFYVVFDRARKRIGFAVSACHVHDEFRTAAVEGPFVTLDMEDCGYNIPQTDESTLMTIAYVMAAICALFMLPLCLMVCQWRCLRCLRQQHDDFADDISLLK
Compound `CC(=O)N[C@@H](CC(C)C)C(=O)N[C@@H](C)C(=O)N[C@@H](CC(C)C)[C@@H](O)CC(=O)N[C@H](C(=O)NCc1cccc(C(=O)O)c1)C(C)C` gave an IC50 of 0.52 µM.
For `CSCC[C@H](NC(=O)[C@H](CC(C)C)NC(C)=O)C(=O)N[C@@H](CC(C)C)[C@@H](O)CC(=O)N[C@H](C(=O)NCc1cccc(C(=O)O)c1)C(C)C` the value was 0.89 µM; for `CC[C@@H](C)[C@@H](NC(C)=O)C(=O)N[C@@H](C)C(=O)N[C@@H](CC(C)C)[C@@H](O)CC(=O)N[C@H](C(=O)NCc1cccc(C(=O)O)c1)C(C)C`, > 91 µM.
Consider `CC[C@H](C)[C@H](NC(C)=O)C(=O)N[C@@H](C)C(=O)N[C@@H](CC(C)C)[C@@H](O)CC(=O)N[C@H](C(=O)NCc1cccc(C(=O)O)c1)C(C)C`, for which the half-maximal inhibitory concentration (IC50) stood at 0.25 µM.
For `CSCC[C@@H](NC(=O)[C@H](CC(C)C)NC(C)=O)C(=O)N[C@@H](CC(C)C)[C@@H](O)CC(=O)N[C@H](C(=O)NCc1cccc(C(=O)O)c1)C(C)C`, the IC50 is > 91 µM.
For `CC(=O)N[C@@H](CC(C)C)C(=O)N[C@H](C)C(=O)N[C@@H](CC(C)C)[C@@H](O)CC(=O)N[C@H](C(=O)NCc1cccc(C(=O)O)c1)C(C)C` the value was > 91 µM; for `CSCC[C@H](NC(=O)[C@H](CC(C)C)NC(C)=O)C(=O)N[C@@H](CC(C)C)[C@@H](O)CC(=O)N[C@@H](C(=O)NCc1cccc(C(=O)O)c1)C(C)C`, > 91 µM; for `CC[C@H](C)[C@H](NC(C)=O)C(=O)N[C@@H](C)C(=O)N[C@@H](CC(C)C)[C@@H](O)CC(=O)N[C@@H](Cc1ccccc1)C(=O)NCc1cccc(C(=O)O)c1` (Ac-IA[Sta]F[3Amb]-OH), 0.25 µM.
The figure for `CC[C@H](C)[C@H](NC(C)=O)C(=O)N[C@@H](C)C(=O)N[C@@H](CC(C)C)[C@@H](O)CC(=O)N[C@@H](CC(C)C)C(=O)NCc1cccc(C(=O)O)c1` (Ac-IA[Sta]L[3Amb]-OH) is 0.26 µM; for `CC[C@H](C)[C@H](NC(C)=O)C(=O)N[C@@H](C)C(=O)N[C@@H](CC(C)C)[C@@H](O)CC(=O)N[C@@H](Cc1ccc(O)cc1)C(=O)NCc1cccc(C(=O)O)c1` (Ac-IA[Sta]Y[3Amb]-OH) it is 0.11 µM; for `CCCC[C@H](NC(=O)C[C@H](O)[C@H](CC(C)C)NC(=O)[C@H](C)NC(=O)[C@@H](NC(C)=O)[C@@H](C)CC)C(=O)NCc1cccc(C(=O)O)c1` (Ac-IA[Sta][Nle][3Amb]-OH) it is 0.18 µM.
The figure for `CC[C@H](C)[C@H](NC(C)=O)C(=O)N[C@@H](CCSC)C(=O)N[C@@H](CC(C)C)[C@@H](O)CC(=O)N[C@@H](Cc1ccccc1)C(=O)NCc1cccc(C(=O)O)c1` (Ac-IM[Sta]F[3Amb]-OH) is 0.14 µM.
With `CC[C@H](C)[C@H](NC(C)=O)C(=O)N[C@@H](CCSC)C(=O)N[C@@H](CC(C)C)[C@@H](O)CC(=O)N[C@@H](Cc1ccc(O)cc1)C(=O)NCc1cccc(C(=O)O)c1` (Ac-IM[Sta]Y[3Amb]-OH), 0.091 µM corresponded to half-maximal inhibition (IC50).
For `CCCC[C@H](NC(=O)C[C@H](O)[C@H](CC(C)C)NC(=O)[C@H](CCSC)NC(=O)[C@@H](NC(C)=O)[C@@H](C)CC)C(=O)NCc1cccc(C(=O)O)c1` (Ac-IM[Sta][Nle][3Amb]-OH) the value was 0.086 µM; for `CCC[C@H](NC(=O)C[C@H](O)[C@H](CC(C)C)NC(=O)[C@H](CCSC)NC(=O)[C@@H](NC(C)=O)[C@@H](C)CC)C(=O)NCc1cccc(C(=O)O)c1` (Ac-IM[Sta][Nva][3Amb]-OH), 0.13 µM.
For `CC(=O)N[C@H](C(=O)N[C@@H](C)C(=O)N[C@@H](CC(C)C)[C@@H](O)CC(=O)N[C@H](C(=O)NCc1cccc(C(=O)O)c1)C(C)C)C(C)C` (Ac-VA[Sta]V[3Amb]-OH) the value was 3.8 µM.
For `CCCC[C@H](NC(C)=O)C(=O)N[C@@H](C)C(=O)N[C@@H](CC(C)C)[C@@H](O)CC(=O)N[C@H](C(=O)NCc1cccc(C(=O)O)c1)C(C)C` (Ac-[Nle]A[Sta]V[3Amb]-OH) the value was 1.4 µM; for `CCC[C@H](NC(C)=O)C(=O)N[C@@H](C)C(=O)N[C@@H](CC(C)C)[C@@H](O)CC(=O)N[C@H](C(=O)NCc1cccc(C(=O)O)c1)C(C)C` (Ac-[Nva]A[Sta]V[3Amb]-OH), 0.83 µM; for `CC(C)C[C@H](NC(=O)[C@H](C)NC(=O)[C@@H](NC(=O)[C@@H](N)CCC(=O)O)C(C)C)[C@@H](O)CC(=O)N[C@H](C(=O)N[C@@H](C)C(=O)N[C@@H](CCC(=O)O)C(=O)N[C@@H](Cc1ccccc1)C(=O)O)C(C)C` (H-EVA[Sta]VAEF-OH), 0.11 µM.
`CC[C@H](C)[C@H](NC(=O)C[C@H](O)[C@H](CC(C)C)NC(=O)[C@H](CCSC)NC(=O)[C@@H](NC(=O)[C@@H](N)CCC(=O)O)C(C)C)C(=O)N[C@@H](C)C(=O)N[C@@H](CCC(=O)O)C(=O)N[C@@H](Cc1ccccc1)C(=O)O` (H-EVM[Sta]IAEF-OH) displayed an IC50 of 0.22 µM.
For `CSCC[C@H](NC(=O)[C@@H](NC(=O)[C@@H](N)CCC(=O)O)C(C)C)C(=O)N[C@@H](CC(C)C)[C@@H](O)CC(=O)N[C@@H](CC(C)C)C(=O)N[C@@H](C)C(=O)N[C@@H](CCC(=O)O)C(=O)N[C@@H](Cc1ccccc1)C(=O)O` (H-EVM[Sta]LAEF-OH) the value was 0.14 µM.
`CSCC[C@H](NC(=O)[C@@H](NC(=O)[C@@H](N)CCC(=O)O)C(C)C)C(=O)N[C@@H](CC(C)C)[C@@H](O)CC(=O)N[C@H](C(=O)N[C@@H](C)C(=O)N[C@@H](CCC(=O)O)C(=O)N[C@@H](Cc1ccccc1)C(=O)O)C(C)C` (H-EVM[Sta]VAEF-OH) had an IC50 of 0.058 µM.
For the compound `CC(C)C[C@H](NC(=O)[C@H](CC(N)=O)NC(=O)[C@@H](NC(=O)[C@@H](N)CCC(=O)O)C(C)C)[C@@H](O)CC(N)=O` (H-EVN[Sta]-NH2), the IC50 is > 91 µM.
`CC(C)C[C@H](NC(=O)[C@H](CC(N)=O)NC(=O)[C@@H](NC(=O)[C@@H](N)CCC(=O)O)C(C)C)[C@@H](O)CC(=O)N[C@H](C(N)=O)C(C)C` (H-EVN[Sta]V-NH2) gave an IC50 of 9.4 µM.
The figure for `CC(C)C[C@H](NC(=O)[C@H](CC(N)=O)NC(=O)[C@@H](NC(=O)[C@@H](N)CCC(=O)O)C(C)C)[C@@H](O)CC(=O)N[C@H](C(=O)N[C@@H](C)C(N)=O)C(C)C` (H-EVN[Sta]VA-NH2) is 0.53 µM; for `CC(C)C[C@H](NC(=O)[C@H](CC(N)=O)NC(=O)[C@@H](NC(=O)[C@@H](N)CCC(=O)O)C(C)C)[C@@H](O)CC(=O)N[C@H](C(=O)N[C@@H](C)C(=O)N[C@@H](CCC(=O)O)C(N)=O)C(C)C` (H-EVN[Sta]VAE-NH2) it is 0.11 µM; for `CC(C)C[C@H](NC(=O)[C@H](CC(N)=O)NC(=O)[C@@H](NC(=O)[C@@H](N)CCC(=O)O)C(C)C)[C@@H](O)CC(=O)N[C@H](C(=O)N[C@@H](C)C(=O)N[C@@H](CCC(=O)O)C(=O)N[C@@H](Cc1ccccc1)C(=O)O)C(C)C` (H-EVN[Sta]VAEF-OH) it is 0.046 µM.
Consider `CC(C)C[C@H](NC(=O)[C@@H](N)CC(N)=O)[C@@H](O)CC(=O)N[C@H](C(=O)N[C@@H](C)C(=O)N[C@@H](CCC(=O)O)C(=O)N[C@@H](Cc1ccccc1)C(=O)O)C(C)C` (H-N[Sta]VAEF-OH), for which the IC50 is > 91 µM.
In the case of `CC(C)C[C@H](NC(=O)[C@H](CC(N)=O)NC(=O)[C@@H](N)C(C)C)[C@@H](O)CC(=O)N[C@H](C(=O)N[C@@H](C)C(=O)N[C@@H](CCC(=O)O)C(=O)N[C@@H](Cc1ccccc1)C(=O)O)C(C)C` (H-VN[Sta]VAEF-OH), the IC50 worked out at 2 µM.
The compound `CC[C@H](C)[C@H](NC(=O)C1CCCCO1)C(=O)N[C@@H](C)C(=O)N[C@@H](CC(C)C)[C@@H](O)CC(=O)N[C@H](C(=O)NCc1cccc(C(=O)O)c1)C(C)C` (stereo not given in full) (X1-IA[Sta]V[3Amb]-OH) showed an IC50 of 0.069 µM.

The values above are taken from ChEMBL document CHEMBL1145754, “Design and synthesis of statine-containing BACE inhibitors” (Bioorg Med Chem Lett, 2003).
